Source: US10670605B2, “Cysteine reactive probes and uses thereof” (The Scripps Research Institute, priority 2015, dated 2020)
Values joined by “and” are separate entries in the source; they are usually repeats but may differ in a detail not shown here. Identical values can stand only once. One block for each compound: values may come before it.

How the values were obtained:
Test in all cases: Competitive isoTOP-ABPP, cell lysates
Format in all cases: binding
UBE2S C118 (Q16763) = target: T1, UBE2S C118 (Q16763) (Homo sapiens, UniProt Q16763); details: for isoTOP-ABPP reactivity ratio, Q16763_C118: 500 μm
T1 sequence (Q16763 1-222): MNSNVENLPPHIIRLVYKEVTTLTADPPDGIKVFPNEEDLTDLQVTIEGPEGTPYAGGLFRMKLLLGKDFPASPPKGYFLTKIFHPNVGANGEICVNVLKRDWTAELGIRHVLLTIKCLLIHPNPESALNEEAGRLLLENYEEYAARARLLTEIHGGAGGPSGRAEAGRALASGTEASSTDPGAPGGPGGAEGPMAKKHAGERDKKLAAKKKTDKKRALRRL

GSTP1 C48 (P09211) = GSTP1 C48 (P09211) (Homo sapiens, UniProt P09211); details: for isoTOP-ABPP ratio, P09211_C48: 500 μM, invitro; for isoTOP-ABPP reactivity ratio, P09211_C48: 500 μm
Sequence of GSTP1 C48 (P09211) (P09211 whole entry): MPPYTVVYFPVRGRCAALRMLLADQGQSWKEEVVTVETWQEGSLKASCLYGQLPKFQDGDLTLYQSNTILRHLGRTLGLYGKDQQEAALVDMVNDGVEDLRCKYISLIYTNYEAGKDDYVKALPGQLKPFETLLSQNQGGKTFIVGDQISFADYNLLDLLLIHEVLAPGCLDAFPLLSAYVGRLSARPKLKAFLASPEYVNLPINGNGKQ

UCHL3 C95 (P15374) = target: T2, UCHL3 C95 (P15374) (Homo sapiens, UniProt P15374); details: for isoTOP-ABPP reactivity ratio, P15374_C95: 500 μm
T2 sequence (P15374 1-230): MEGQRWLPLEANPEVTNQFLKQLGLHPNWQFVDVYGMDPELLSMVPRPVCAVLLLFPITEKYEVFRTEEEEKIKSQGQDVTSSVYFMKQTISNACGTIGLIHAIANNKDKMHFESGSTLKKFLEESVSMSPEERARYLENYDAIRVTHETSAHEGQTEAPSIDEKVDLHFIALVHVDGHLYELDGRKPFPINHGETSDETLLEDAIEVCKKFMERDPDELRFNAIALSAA

IRF4 C194 (Q15306) = target: T3, IRF4 C194 (Q15306) (Homo sapiens, UniProt Q15306); details: for isoTOP-ABPP ratio (reactivity profile), Q15306_C194: 500 μm in-vitro ramos
T3 sequence (Q15306 1-451): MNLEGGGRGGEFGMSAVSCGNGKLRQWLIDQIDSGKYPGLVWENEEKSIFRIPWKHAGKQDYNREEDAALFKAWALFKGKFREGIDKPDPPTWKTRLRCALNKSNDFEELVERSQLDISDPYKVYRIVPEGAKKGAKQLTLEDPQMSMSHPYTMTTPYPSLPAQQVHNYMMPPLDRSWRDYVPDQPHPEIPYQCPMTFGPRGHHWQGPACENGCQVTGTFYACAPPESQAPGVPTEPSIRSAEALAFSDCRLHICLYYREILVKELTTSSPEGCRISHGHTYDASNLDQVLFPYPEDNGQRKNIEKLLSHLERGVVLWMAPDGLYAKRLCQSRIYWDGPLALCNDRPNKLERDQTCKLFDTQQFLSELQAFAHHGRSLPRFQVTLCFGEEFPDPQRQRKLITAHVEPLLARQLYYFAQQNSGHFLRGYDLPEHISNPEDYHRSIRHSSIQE

XPO1 C34 (O14980) = XPO1 C34 (O14980) (Homo sapiens, UniProt O14980); details: for isoTOP-ABPP ratio, O14980_C34: 500 μM, invitro; for isoTOP-ABPP reactivity ratio, O14980_C34: 500 μm
Sequence of XPO1 C34 (O14980) (O14980 whole entry): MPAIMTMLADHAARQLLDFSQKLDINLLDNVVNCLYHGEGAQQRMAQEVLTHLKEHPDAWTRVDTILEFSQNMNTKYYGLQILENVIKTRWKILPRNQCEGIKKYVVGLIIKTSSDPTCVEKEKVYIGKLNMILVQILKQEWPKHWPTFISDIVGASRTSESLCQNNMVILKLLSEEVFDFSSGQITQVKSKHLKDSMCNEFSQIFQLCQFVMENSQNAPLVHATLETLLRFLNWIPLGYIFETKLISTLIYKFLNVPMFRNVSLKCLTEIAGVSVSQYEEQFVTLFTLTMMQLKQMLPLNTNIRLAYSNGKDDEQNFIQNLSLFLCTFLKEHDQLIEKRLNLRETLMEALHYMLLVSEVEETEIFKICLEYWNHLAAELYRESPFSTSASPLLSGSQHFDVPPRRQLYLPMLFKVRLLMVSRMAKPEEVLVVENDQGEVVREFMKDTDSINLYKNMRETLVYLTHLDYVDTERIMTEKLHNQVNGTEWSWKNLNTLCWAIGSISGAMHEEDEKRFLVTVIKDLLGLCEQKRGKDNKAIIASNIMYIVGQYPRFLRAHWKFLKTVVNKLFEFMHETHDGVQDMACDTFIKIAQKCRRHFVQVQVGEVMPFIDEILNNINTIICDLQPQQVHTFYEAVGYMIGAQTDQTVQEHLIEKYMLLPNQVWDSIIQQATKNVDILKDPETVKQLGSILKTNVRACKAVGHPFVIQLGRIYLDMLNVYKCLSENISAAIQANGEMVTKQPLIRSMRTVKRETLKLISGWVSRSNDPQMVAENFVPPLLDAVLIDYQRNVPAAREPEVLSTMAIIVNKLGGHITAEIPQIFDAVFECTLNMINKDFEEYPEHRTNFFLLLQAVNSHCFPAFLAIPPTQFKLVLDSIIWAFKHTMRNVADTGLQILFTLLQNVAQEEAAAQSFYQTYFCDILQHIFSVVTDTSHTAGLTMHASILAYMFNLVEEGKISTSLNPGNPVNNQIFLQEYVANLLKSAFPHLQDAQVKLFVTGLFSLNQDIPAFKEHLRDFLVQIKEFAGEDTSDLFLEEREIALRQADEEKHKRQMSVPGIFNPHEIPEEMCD

ZNF217 C286 (O75362) = ZNF217 C286 (O75362) (Homo sapiens, UniProt O75362)
Sequence of ZNF217 C286 (O75362) (O75362 whole entry): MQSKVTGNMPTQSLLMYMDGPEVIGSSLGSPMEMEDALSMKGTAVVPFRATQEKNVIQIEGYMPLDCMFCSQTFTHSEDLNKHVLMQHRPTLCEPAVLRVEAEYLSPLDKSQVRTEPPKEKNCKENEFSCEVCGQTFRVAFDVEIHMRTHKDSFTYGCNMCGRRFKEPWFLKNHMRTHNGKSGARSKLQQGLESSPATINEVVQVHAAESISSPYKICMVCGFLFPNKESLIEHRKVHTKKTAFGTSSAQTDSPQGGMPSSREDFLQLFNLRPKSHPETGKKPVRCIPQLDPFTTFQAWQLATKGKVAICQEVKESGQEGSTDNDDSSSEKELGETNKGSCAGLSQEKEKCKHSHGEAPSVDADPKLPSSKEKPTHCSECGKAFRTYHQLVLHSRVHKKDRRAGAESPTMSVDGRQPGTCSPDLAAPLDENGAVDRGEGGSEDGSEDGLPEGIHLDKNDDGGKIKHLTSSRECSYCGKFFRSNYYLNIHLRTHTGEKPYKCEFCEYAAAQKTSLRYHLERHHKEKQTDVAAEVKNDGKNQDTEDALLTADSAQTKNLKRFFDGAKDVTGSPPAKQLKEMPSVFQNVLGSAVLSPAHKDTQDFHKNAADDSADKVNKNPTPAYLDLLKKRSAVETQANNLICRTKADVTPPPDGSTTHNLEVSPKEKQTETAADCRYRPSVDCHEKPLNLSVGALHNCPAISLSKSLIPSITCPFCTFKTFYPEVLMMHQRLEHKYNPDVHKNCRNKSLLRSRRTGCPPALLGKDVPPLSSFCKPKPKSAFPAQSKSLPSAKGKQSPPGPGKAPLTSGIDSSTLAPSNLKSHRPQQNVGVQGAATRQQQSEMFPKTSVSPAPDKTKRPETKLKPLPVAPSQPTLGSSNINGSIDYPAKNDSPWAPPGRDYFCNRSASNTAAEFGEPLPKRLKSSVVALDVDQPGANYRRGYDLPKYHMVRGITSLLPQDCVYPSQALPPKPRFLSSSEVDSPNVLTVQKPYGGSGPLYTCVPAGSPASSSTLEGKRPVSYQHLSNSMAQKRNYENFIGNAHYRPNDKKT

PDIA6 C190 (Q15084) = target: T4, PDIA6 C190 (Q15084) (Homo sapiens, UniProt Q15084); details: for isoTOP-ABPP reactivity ratio, Q15084_C190: 500 μm
T4 sequence (Q15084 20-440): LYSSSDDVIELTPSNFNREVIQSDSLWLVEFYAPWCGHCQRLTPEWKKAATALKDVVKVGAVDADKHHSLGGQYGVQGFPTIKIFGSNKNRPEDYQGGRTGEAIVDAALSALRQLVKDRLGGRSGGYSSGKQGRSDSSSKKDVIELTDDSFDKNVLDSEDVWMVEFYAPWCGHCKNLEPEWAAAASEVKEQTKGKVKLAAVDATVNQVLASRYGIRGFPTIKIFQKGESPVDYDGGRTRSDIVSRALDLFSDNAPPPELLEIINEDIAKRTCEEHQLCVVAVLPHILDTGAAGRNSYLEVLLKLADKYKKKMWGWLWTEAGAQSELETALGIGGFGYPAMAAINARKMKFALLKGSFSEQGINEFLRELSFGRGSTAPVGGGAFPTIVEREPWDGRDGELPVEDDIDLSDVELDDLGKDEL

IDH1 C269 (O75874) = IDH1 C269 (O75874) (Homo sapiens, UniProt O75874); details: 500 μm in-vitro ramos_231
Sequence of IDH1 C269 (O75874) (O75874 whole entry): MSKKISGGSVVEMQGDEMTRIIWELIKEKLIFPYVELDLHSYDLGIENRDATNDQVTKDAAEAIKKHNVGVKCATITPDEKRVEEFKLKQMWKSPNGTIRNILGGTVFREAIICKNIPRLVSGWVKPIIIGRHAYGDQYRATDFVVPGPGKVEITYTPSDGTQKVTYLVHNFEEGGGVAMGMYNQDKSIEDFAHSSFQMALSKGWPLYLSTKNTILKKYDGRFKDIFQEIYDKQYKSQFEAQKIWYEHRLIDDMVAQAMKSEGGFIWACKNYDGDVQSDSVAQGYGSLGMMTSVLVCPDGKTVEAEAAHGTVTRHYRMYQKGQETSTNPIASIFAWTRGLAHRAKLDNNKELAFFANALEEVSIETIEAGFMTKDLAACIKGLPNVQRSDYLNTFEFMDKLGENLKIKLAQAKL

Structure (SMILES): O=C(CCl)NC(=O)NC12CC3CC(CC(C3)C1)C2 [compound 12]
isoTOP-ABPP ratio, Q16763_C118 (UBE2S C118 (Q16763); 500 μM, invitro, ramos): 0.6
isoTOP-ABPP ratio, P09211_C48 (GSTP1 C48 (P09211); 231): 2.9
isoTOP-ABPP ratio, P09211_C48 (GSTP1 C48 (P09211); ramos): 1.1
isoTOP-ABPP ratio, P15374_C95 (UCHL3 C95 (P15374); 500 μM, invitro, ramos): 0.5
isoTOP-ABPP ratio, Q15306_C194 (IRF4 C194 (Q15306); 500 μM, invitro, ramos): 3.7
isoTOP-ABPP ratio, O14980_C34 (XPO1 C34 (O14980); 231): 1.2
isoTOP-ABPP ratio, O14980_C34 (XPO1 C34 (O14980); ramos): 0.7
isoTOP-ABPP ratio O75362_C286 (ZNF217 C286 (O75362); 500 μM, invitro, 231): 1.0
isoTOP-ABPP ratio, Q15084_C190 (PDIA6 C190 (Q15084); 500 μM, invitro, ramos): 20.0

Structure (SMILES): CC(Cl)C(=O)Nc1cc(C(F)(F)F)cc(C(F)(F)F)c1 (stereo not drawn) [compound 25]
isoTOP-ABPP ratio (reactivity profile), Q16763_C118 (UBE2S C118 (Q16763); 500 μm in-vitro ramos_231): 1.0
isoTOP-ABPP ratio (reactivity profile), P09211_C48 (GSTP1 C48 (P09211); 500 μm in-vitro ramos_231): 1.8
isoTOP-ABPP ratio (reactivity profile), P15374_C95 (UCHL3 C95 (P15374); 500 μm in-vitro ramos_231): 0.8
isoTOP-ABPP ratio (reactivity profile), O14980_C34 (XPO1 C34 (O14980); 500 μm in-vitro ramos_231): 0.9
isoTOP-ABPP ratio (reactivity profile), O75362_C286 (ZNF217 C286 (O75362); 500 μm in-vitro ramos_231): 20.0
isoTOP-ABPP ratio (reactivity profile), O75874_C269 (IDH1 C269 (O75874)): 1.0
isoTOP-ABPP ratio (reactivity profile), Q15084_C190 (PDIA6 C190 (Q15084); 500 μm in-vitro ramos_231): 1.0

Structure (SMILES): O=C(/C=C/c1ccccc1)Nc1cc(C(F)(F)F)cc(C(F)(F)F)c1 [compound 26]
isoTOP-ABPP ratio (reactivity profile), Q16763_C118 (UBE2S C118 (Q16763); 500 μm in-vitro ramos): 0.9
isoTOP-ABPP ratio (reactivity profile), P09211_C48 (GSTP1 C48 (P09211); 500 μm in-vitro ramos): 0.9
isoTOP-ABPP ratio (reactivity profile), P15374_C95 (UCHL3 C95 (P15374); 500 μm in-vitro ramos): 0.8
isoTOP-ABPP ratio (reactivity profile), Q15306_C194 (IRF4 C194 (Q15306)): 1.1
isoTOP-ABPP ratio (reactivity profile), O14980_C34 (XPO1 C34 (O14980); 500 μm in-vitro ramos): 0.9
isoTOP-ABPP ratio (reactivity profile), Q15084_C190 (PDIA6 C190 (Q15084); 500 μm in-vitro ramos): 0.9

Further lines, results first:

isoTOP-ABPP ratio (reactivity profile), Q16763_C118 (UBE2S C118 (Q16763); 500 μm in-vitro ramos): 0.9
isoTOP-ABPP ratio (reactivity profile), Q16763_C118 (UBE2S C118 (Q16763); 500 μm in-vitro ramos_231): 0.8
isoTOP-ABPP ratio (reactivity profile), P09211_C48 (GSTP1 C48 (P09211); 500 μm in-vitro ramos): 1.0
isoTOP-ABPP ratio (reactivity profile), P09211_C48 (GSTP1 C48 (P09211); 500 μm in-vitro ramos_231): 1.3 and 1.0
isoTOP-ABPP ratio (reactivity profile), P15374_C95 (UCHL3 C95 (P15374); 500 μm in-vitro ramos): 1.0
isoTOP-ABPP ratio (reactivity profile), P15374_C95 (UCHL3 C95 (P15374); 500 μm in-vitro ramos_231): 0.4
isoTOP-ABPP ratio (reactivity profile), Q15306_C194 (IRF4 C194 (Q15306)): 1.0
isoTOP-ABPP ratio (reactivity profile), O14980_C34 (XPO1 C34 (O14980); 500 μm in-vitro ramos): 1.0
isoTOP-ABPP ratio (reactivity profile), O14980_C34 (XPO1 C34 (O14980); 500 μm in-vitro ramos_231): 0.9 and 1.0
isoTOP-ABPP ratio (reactivity profile), O75362_C286 (ZNF217 C286 (O75362); 500 μm in-vitro ramos): 1.0
isoTOP-ABPP ratio (reactivity profile), Q15084_C190 (PDIA6 C190 (Q15084); 500 μm in-vitro ramos): 1.1
isoTOP-ABPP ratio (reactivity profile), Q15084_C190 (PDIA6 C190 (Q15084); 500 μm in-vitro ramos_231): 0.9
Structure (SMILES): CC(C)CCOCCNC(=O)CCl [compound 27]

isoTOP-ABPP reactivity ratio, Q16763_C118 (UBE2S C118 (Q16763); in-vitro_ramos): 1.1
isoTOP-ABPP reactivity ratio, Q16763_C118 (UBE2S C118 (Q16763); in-vitro_ramos_231): 1.1
isoTOP-ABPP reactivity ratio, P09211_C48 (GSTP1 C48 (P09211); in-vitro_ramos): 1.4
isoTOP-ABPP reactivity ratio, P09211_C48 (GSTP1 C48 (P09211); in-vitro_ramos_231): 1.9
isoTOP-ABPP reactivity ratio, P15374_C95 (UCHL3 C95 (P15374); in-vitro_ramos): 1.0
isoTOP-ABPP reactivity ratio, P15374_C95 (UCHL3 C95 (P15374); in-vitro_ramos_231): 1.2
isoTOP-ABPP reactivity ratio, Q15306_C194 (IRF4 C194 (Q15306); 500 μm, in-vitro_ramos): 3.7
isoTOP-ABPP reactivity ratio, O14980_C34 (XPO1 C34 (O14980); in-vitro_ramos): 1.0
isoTOP-ABPP reactivity ratio, O14980_C34 (XPO1 C34 (O14980); in-vitro_ramos_231): 1.2
isoTOP-ABPP reactivity ratio, Q15084_C190 (PDIA6 C190 (Q15084); in-vitro_ramos): 20.0
isoTOP-ABPP reactivity ratio, Q15084_C190 (PDIA6 C190 (Q15084); in-vitro_ramos_231): 20.0
Structure (SMILES): CC(C)(C)c1cc(NC(=O)CCl)on1 [compound 32]
